Source: US20110144010A1, “Spontaneously Dispersible Preconcentrates Including a Peptide Drug in a Solid or Semisolid Carrier” (Novo Nordisk A/S, priority 2007, published 2011)

Columns and labels:
non diabetic dogs = assay: Reduction in blood glucose after oral administration of enteric coated capsule to non diabetic dogs; type: in vivo; settings: overnight fasted dogs, propylene glycol, Capmul MCM, Pluronic F127, PEG 3350
non-diabetic SPRD rats = assay: Reduction of the blood glucose level after per-oral dosage (via gavage) to non-diabetic SPRD rats; type: in vivo
Procedure: The reduction in blood glucose in non-diabetic rats was examined after:
3) Vehicle SEDDS containing 62.5% propylene glycol, 31.25% Capmul MCM C10 and 6.25% poloxamer 407 was dosed orally. SEDDS had been melted at 35° C. before dosing.
(mean±SEM, n=5-6, dosage volume=4 ml/kg).

A14GluB25HisdesB30 human insulin
Blood glucose levels (non diabetic dogs; oral enteric coated capsule: 46 mg A14GluB25HisdesB30 human insulin, FIG. 2): Reduction in blood glucose levels | Blood glucose level (non-diabetic SPRD rats; 4800 nmol/kg in SEDDS (propylene glycol, Capmul MCM C10, poloxamer 407) or 4880 nmol/kg in H2O, FIG. 4): Reduction of the Blood Glucose Level

Asp^B28 human insulin [insulin aspart]
Blood glucose levels (non diabetic dogs; oral enteric coated capsule: 69 mg insulin aspart, FIG. 1): Reduction in blood glucose levels | Blood glucose level (non-diabetic SPRD rats; 9600 nmol/kg in SEDDS (propylene glycol, Capmul MCM C10, poloxamer 407) or 9800 nmol/kg in H2O, FIG. 3): Reduction of the Blood Glucose Level
